Assay: Reactivity of nucleophilic reagent, secondary evaluation with seven substances
Settings: all six substances except 5-methyl-2,3-hexanedione
From the text: (§1) One solvent with which a 1 mmol/L test substance solution can be prepared is selected according to the following order of priority: water, acetonitrile, acetone, and a 5% solution of DMSO in acetonitrile. If water, acetonitrile, or acetone is selected, a 20 mmol/L test substance solution is first prepared. A suitable amount of the test substance is weighed and completely dissolved by adding the solvent to prepare a 20 mmol/L solution. A portion of the 20 mmol/L solution is then collected and diluted 20-fold with the same solvent to prepare a 1 mmol/L test substance solution. If a 5% by mass solution of DMSO in acetonitrile is selected, a 20 mmol/L test substance solution is prepared in the same manner as above. A portion of the solution is then collected and diluted 20-fold with acetonitrile to prepare a 1 mmol/L test substance solution.
The plate is firmly sealed with a plate seal (resistant embossed seal (TORAST™ 96-well Seal E Type (TORAST is a registered trademark)), Shimadzu GLC Ltd.) and is shaken on a plate shaker (Titramax 100, Heidolph Instruments). After being spun down in a centrifuge, the reaction solutions are incubated at 25° C. in a light-shielded state for 24 hours. […]
(§2) The depletion of the nucleophilic reagent is calculated from the mean peak area of the nucleophilic reagent by the following equation: […]

Which “reactivity with six secondary evaluation substances compared with NAC or NAL” value does the source give for CC(=O)N[C@@H](CCCCN)C(=O)N[C@@H](CS)C(=O)NCc1cccc2ccccc12 [Compound 2] here?
The value was “higher than that of NAC or NAL alone and the mean depletion”.

Which “reactivity with six secondary evaluation substances compared with NAC or NAL” value does the source give for CC(=O)N[C@@H](CS)C(=O)N[C@@H](CCCCN)C(=O)N[C@@H](CC(=O)O)C(=O)NCc1cccc2ccccc12 [Compound 4] here?
Its value is “higher than that of NAC or NAL alone and the mean depletion”.

Assay: Reactivity of nucleophilic reagent with evaluation substance (depletion, HPLC), primary evaluation
Settings: 1 mmol/L test substance solution, 25° C., 24 hours
Description: 1) A nucleophilic reagent is dissolved in DMSO (manufactured by FUJIFILM Wako Pure Chemical Corporation) depending on its molecular weight to prepare a 2 mmol/L nucleophilic reagent solution.
2) To a 500 mL container, 149.5 mL of the buffer solution is added using a 50 mL measuring pipette, and 0.5 mL of the 2 mmol/L nucleophilic reagent solution is added and mixed by inversion so that the solution is diluted 300-fold (6.667 μmol/L). This solution is stored in a freezer at −70° C. or lower.
as §1
Test substance solutions are prepared on a 96-well plate (U96 PP-0.5 ML NATURAL, Thermo (NUNC)), mainly using a 12-channel pipette, and the reagent is added in the following amount:
Nucleophilic reagent: 150 μL
(§3) Test substance solution: 50 μL
(§4) The plate is firmly sealed with a plate seal (resistant embossed seal (TORAST™ 96-well Seal E Type (TORAST is a registered trademark)), Shimadzu GLC Ltd.) and is shaken on a plate shaker (Titramax 100, Heidolph Instruments). After being spun down in a centrifuge, the reaction solutions are incubated at 25° C. in a light-shielded state for 24 hours.
(§5) After incubation for 24 hours, the plate seal is removed, and 50 μL of the reaction stop solution is added to each sample to stop the reaction.
The HPLC measurement conditions for the nucleophilic reagents are given below. As the elution conditions, condition 1, 2 or 3 was selected depending on the nucleophilic reagent.
as §2
(§6) Ten substances shown in the following table were used for reactivity evaluation. For primary evaluation, the upper three substances were used. […] For secondary evaluation, the lower seven substances were used. The substances selected for the secondary evaluation were substances that are difficult to distinguish between sensitizers and non-sensitizers by analysis using NAC and NAL. As above, the substances selected for the secondary evaluation were five substances that mainly react with cysteine and two substances that mainly react with lysine.

Which “reactivity (nucleophilic reagent depletion) with 2-methyl-2H-isothiazol-3-one” value (“reactivity … with 2-methyl-2H-isothiazol-3-one” below) does the source give for NCCCC[C@H](NC(=O)[C@H](CS)NC(=O)CO)C(=O)N[C@@H](CC(=O)O)C(=O)NCc1cccc2ccccc12 [Compound 13] here?
The value was “about 100%”.

For NCCCCC(NC(=O)[C@H](CS)NC(=O)[C@H](Cc1c[nH]cn1)NC(=O)Cc1ccc2ccccc2c1)C(N)=O (some centres unmarked) [Compound 19], which “reactivity … with 2-methyl-2H-isothiazol-3-one” value is on record?
Its value is “about 100%”.

For NCCCCC(NC(=O)[C@H](CS)NC(=O)C(Cc1c[nH]cn1)NC(=O)Cc1ccc2ccccc2c1)C(=O)O (some centres unmarked) [Compound 24], which “reactivity … with 2-methyl-2H-isothiazol-3-one” value is on record?
Its value is “about 100%”.

Which “reactivity … with 2-methyl-2H-isothiazol-3-one” value does the source give for NCCCCC(NC(=O)[C@H](CS)NC(=O)[C@H](Cc1ccccn1)NC(=O)Cc1ccc2ccccc2c1)C(N)=O (some centres unmarked) [Compound 16] here?
Its value is “about 100%”.

With NCCCC[C@H](NC(=O)C(Cc1ccncc1)NC(=O)Cc1ccc2ccccc2c1)C(=O)NC(CS)C(=O)O (some centres unmarked) [Compound 27] as the compound, how does the “reactivity … with 2-methyl-2H-isothiazol-3-one” value read?
The value was “about 100%”.

For NCCCCC(NC(=O)Cc1ccc2ccccc2c1)C(=O)N[C@@H](CS)C(=O)O (some centres unmarked) [Compound 30], which “reactivity … with 2-methyl-2H-isothiazol-3-one” value is on record?
The value was “about 100%”.

Which “reactivity … with 2-methyl-2H-isothiazol-3-one” value does the source give for NCCCC[C@H](NC(=O)C(Cc1c[nH]cn1)NC(=O)Cc1ccc2ccccc2c1)C(=O)NC(CS)C(=O)O (some centres unmarked) [Compound 29] here?
Its value is “about 100%”.

With NCCCCC(NC(=O)[C@H](CS)NC(=O)[C@H](Cc1ccccn1)NC(=O)Cc1ccc2ccccc2c1)C(=O)O (some centres unmarked) [Compound 21] as the compound, how does the “reactivity … with 2-methyl-2H-isothiazol-3-one” value read?
Its value is “about 100%”.

For CC(=O)N[C@@H](CS)C(=O)N[C@@H](CCCCN)C(=O)N[C@@H](CC(=O)O)C(=O)NCc1cccc2ccccc12 [Compound 4], which “reactivity … with 2-methyl-2H-isothiazol-3-one” value is on record?
Its value is “about 100%”.

For NCCCCC(NC(=O)[C@H](CS)NC(=O)C(Cc1ccncc1)NC(=O)Cc1ccc2ccccc2c1)C(=O)O (some centres unmarked) [Compound 22], which “reactivity … with 2-methyl-2H-isothiazol-3-one” value is on record?
The value was “about 100%”.

Assay: not given
Settings: class given for the evaluation substance; cited from earlier work

Which Skin sensitization does the source give for O=C(O)c1ccccc1O [Salicylic acid] here?
Its Skin sensitization is “Non-sensitizer”.

With CC(C=O)Cc1ccc(C(C)C)cc1 (centres unmarked) [Cyclamen aldehyde] as the compound, how does the Skin sensitization read?
Its Skin sensitization is “Strong sensitizer”.

Which Skin sensitization does the source give for O=C(O)c1ccc2c(c1)C(=O)OC2=O [Trimellitic anhydride] here?
The Skin sensitization was “Strong sensitizer”.

Which Skin sensitization does the source give for O=c1c(-c2ccccc2)c1-c1ccccc1 [Diphenylcyclopropenone] here?
The Skin sensitization was “Strong sensitizer”.

For C=C(C)C(=O)OCCOC(=O)C(=C)C [Ethylene glycol dimethacrylate], which Skin sensitization is on record?
Its Skin sensitization is “Strong sensitizer”.

Which Skin sensitization does the source give for CC(CC=O)CCCC(C)(C)O (centres unmarked) [Hydroxycitronellal] here?
Its Skin sensitization is “Strong sensitizer”.

For CCCCCCCCC(=O)Cl [Nonanoyl chloride], which Skin sensitization is on record?
The Skin sensitization was “Moderate”.

For Cn1sccc1=O [2-Methyl-2H-isothiazol-3-one], which Skin sensitization is on record?
The Skin sensitization was “Moderate”.

Assay: Depletion of nucleophilic reagent by evaluation substance (HPLC)
Settings: 1 mmol/L test substance solution, 25° C., 24 hours
From the text: as §1, §4, §5, §2, §6
Using the three substances shown in the following table, 1 mmol/L solutions were prepared and used for testing.
A solution prepared by dissolving NAC and NAL in a phosphate buffer solution (pH 8.0) prepared in accordance with “(1-2) 100 mmol/L Phosphate Buffer Solution (pH 8.0)” of “(1) Preparation of Various Solutions” above such that the concentration of each nucleophilic reagent was 13.333 μmol/L was used as a nucleophilic reagent stock solution.
Nucleophilic reagent stock solution: NAC and NAL, 75 μL each
as §3
The procedures described in “(4-2) Reaction” and “(4-3) Reaction Stop” of “(4) Reaction” above were performed.
In addition, the nucleophilic reagent depletion (%) was determined by the method described in “(6) Data Analysis” above.

For CC(=O)N[C@@H](CCCCN)C(=O)N[C@@H](CS)C(=O)NCc1cccc2ccccc12 [Compound 2], which “depletion for 5-methyl-2,3-hexanedione” value is on record?
Its value is 16.7%.

And the depletion for diphenylcyclopropenone?
The depletion for diphenylcyclopropenone was 34.9%.

And the “depletion for nonanoyl chloride” value?
Its value is 65.2%.

For CC(=O)N[C@@H](CS)C(=O)N[C@@H](CCCCN)C(=O)N[C@@H](CC(=O)O)C(=O)NCc1cccc2ccccc12 [Compound 4], which “depletion for 5-methyl-2,3-hexanedione” value is on record?
Its value is 13.8%.

What about the depletion for diphenylcyclopropenone of the same compound?
Its depletion for diphenylcyclopropenone is 100%.

What about the “depletion for nonanoyl chloride” value of the same compound?
The value was 67.6%.

From patent US12638394B2, “Skin sensitization measuring reagent, method for measuring skin sensitization, and compound” (FUJIFILM Corporation, priority 2019, dated 2026)
